The source of these data is PubChem BioAssay AID330 (DTP/NCI, 2004).

This test concerns P388 leukemia ip, CD2F1 mice, survival T/C. Put plainly: NCI In Vivo Anticancer Drug Screen. Data for tumor model P388 Leukemia (intraperitoneal) in CD2F1 (CDF1) mice. The settings on record: endpoint: median survival time, higher = longer survival. A digest of the protocol:
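Mice carrying the transplanted tumor received test compound or vehicle. Survival was recorded in each group, and the value is the treated-group measurement divided by that of the vehicle-treated control group.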

Setting [1] is: dose: 50.0 mg/kg/injection, schedule: Q01DX005 (ip), vehicle: saline with Tween-80.
The mark [2] stands for this setting: dose: 100.0 mg/kg/injection, schedule: Q01DX005 (ip), vehicle: saline with Tween-80.
[3] abbreviates: dose: 200.0 mg/kg/injection, schedule: Q01DX005 (ip), vehicle: saline with Tween-80.
Where [4] appears, read: dose: 50.0 mg/kg/injection, schedule: Q01DX005 (ip), vehicle: saline.
Where [5] appears, read: dose: 100.0 mg/kg/injection, schedule: Q01DX005 (ip), vehicle: saline.
Where [6] appears, read: dose: 200.0 mg/kg/injection, schedule: Q01DX005 (ip), vehicle: saline.
[7] abbreviates: dose: 100.0 mg/kg/injection, schedule: Q01DX009 (ip), vehicle: saline with Tween-80.
Setting [8] is: dose: 100.0 mg/kg/injection, schedule: Q04DX003 (ip), vehicle: saline with Tween-80.
[9] abbreviates: dose: 200.0 mg/kg/injection, schedule: Q04DX003 (ip), vehicle: saline with Tween-80.
Where [10] appears, read: dose: 50.0 mg/kg/injection, schedule: Q01DX005 (ip), vehicle: Klucel (hydroxypropylcellulose) (HPC).
Where [11] appears, read: dose: 100.0 mg/kg/injection, schedule: Q01DX005 (ip), vehicle: Klucel (hydroxypropylcellulose) (HPC).
Where [12] appears, read: dose: 200.0 mg/kg/injection, schedule: Q01DX005 (ip), vehicle: Klucel (hydroxypropylcellulose) (HPC).

Several values for one entry are separate records, joined by “and”; a condition that tells them apart may be missing. Equal values may be shown once. Toxic doses and inconclusive results are not listed.

As to `CCOC(=O)CN(CCN(CC)CC)c1ccc([N+](=O)[O-])cc1[N+](=O)[O-]`, the T/C was 95 % of control (dose: 100.0 mg/kg/injection, schedule: Q01DX001 (ip), vehicle: other) and 100 % of control (dose: 200.0 mg/kg/injection, schedule: Q01DX001 (ip), vehicle: other).
Take `CCCC(=O)OCc1ccc(Cl)c(Cl)c1`: the T/C was 100 % of control (dose: 25.0 mg/kg/injection, schedule: Q04DX003 (ip), vehicle: saline); 104 % of control (dose: 50.0 mg/kg/injection, schedule: Q04DX003 (ip), vehicle: saline); 100 % of control (dose: 100.0 mg/kg/injection, schedule: Q04DX003 (ip), vehicle: saline).
As for `Cc1ccccc1N=C1SCC(=O)N1c1ccccc1C`, the T/C under setting [1] was 96 % of control, the T/C under setting [2] is 99 % of control and the T/C under setting [3] was 91 % of control.
Regarding `C1=CCC2CSCC2C1` (stereo unspecified), the T/C is 100 % of control (dose: 37.5 mg/kg/injection, schedule: Q01DX001 (ip), vehicle: saline sonified) and 105 % of control (dose: 75.0 mg/kg/injection, schedule: Q01DX001 (ip), vehicle: saline sonified).
Consider `O=C1OCC2OCCC12` (stereo unspecified), for which the T/C was 100 % of control under setting [4], 100 % of control under setting [5] and 101 % of control under setting [6].
In the case of `C1=NN2C3c4ccccc4C(C1)C32` (stereo unspecified), the T/C is, setting by setting: (dose: 100.0 mg/kg/injection, schedule: Q01DX001 (ip), vehicle: Klucel (hydroxypropylcellulose) (HPC)) 109 % of control; (dose: 200.0 mg/kg/injection, schedule: Q01DX001 (ip), vehicle: Klucel (hydroxypropylcellulose) (HPC)) 113 % of control.
Take `CCOC(=O)C(N)(CO)Cc1ccccc1` (stereo unspecified): the T/C by setting is: under setting [4], 103 % of control; under setting [5], 100 % of control; under setting [6], 99 % of control.
`CCOC(=O)N1c2ccccc2OC1C#N` (stereo unspecified): the T/C reads like this: under setting [1], 99 % of control; under setting [2], 107 % of control; under setting [3], 113 % of control.
On to `CCCC1(N2CCCC2)C(=O)NC(=O)N(CC)C1=O` (stereo unspecified), for which the T/C is 108 % of control (dose: 60.0 mg/kg/injection, schedule: Q01DX005 (ip), vehicle: Klucel (hydroxypropylcellulose) (HPC)); 93 % of control (dose: 120.0 mg/kg/injection, schedule: Q01DX005 (ip), vehicle: Klucel (hydroxypropylcellulose) (HPC)); 101 % of control (dose: 240.0 mg/kg/injection, schedule: Q01DX005 (ip), vehicle: Klucel (hydroxypropylcellulose) (HPC)).
As for `CCCCCCCCCCC(O)C(=O)O` (stereo unspecified), the T/C is, setting by setting: (dose: 50.0 mg/kg/injection, schedule: Q01DX009 (ip), vehicle: saline with Tween-80) 95 % of control; under setting [7], 89 % of control.
As to `CCCN(CCC)CCCCO`, the T/C by setting is: (dose: 50.0 mg/kg/injection, schedule: Q04DX003 (ip), vehicle: saline with Tween-80) 195 % of control; under setting [8], 100 % of control; under setting [9], 100 % of control.
For the molecule `COc1cccc2c1C(=O)c1c(O)c3c(c(O)c1C2=O)CC(O)(/C=N/NS(=O)(=O)c1ccc(C)cc1)CC3OC1CC(N)C(O)C(C)O1` (stereo unspecified), the T/C was 153 % of control (dose: 6.25 mg/kg/injection, schedule: Q01DX009 (ip), vehicle: other); 178 % of control (dose: 12.5 mg/kg/injection, schedule: Q01DX009 (ip), vehicle: other); 93 % of control (dose: 25.0 mg/kg/injection, schedule: Q01DX009 (ip), vehicle: other).
For `O=C1N(Cc2ccccc2)C2CCS(=O)CCC2N1Cc1ccccc1` (stereo unspecified), the T/C runs as follows: under setting [1], 100 % of control; under setting [2], 95 % of control; under setting [3], 92 % of control.
Take `CC1=CC(C)(C)N=C2SC(COc3ccccc3)=NN12`: the T/C (dose: 25.0 mg/kg/injection, schedule: Q01DX005 (ip), vehicle: Klucel (hydroxypropylcellulose) (HPC)) is 116 % of control; the T/C under setting [10] was 109 % of control; the T/C under setting [11] was 107 % of control; the T/C under setting [12] is 104 % of control.
As to `COc1ccc2c(c1)c(CBr)c(C)c[n+]2[O-]`, the T/C is, setting by setting: (dose: 6.25 mg/kg/injection, schedule: Q01DX005 (ip), vehicle: Klucel (hydroxypropylcellulose) (HPC)) 104 % of control; (dose: 12.5 mg/kg/injection, schedule: Q01DX005 (ip), vehicle: Klucel (hydroxypropylcellulose) (HPC)) 102 % of control; under setting [10], 86 % of control.
Regarding `Cc1c2c(cc3c4ccccc4n(C)c13)C(=O)NC2=O`, the T/C under setting [1] was 91 % of control and the T/C under setting [2] was 90 % of control.
As for `CC1(C)C(=O)/C(=C/c2ccccc2N)Cc2ccccc21`, the T/C reads like this: under setting [10], 90 % of control; under setting [11], 107 % of control; under setting [12], 102 % of control.
As to `COC(=O)C(Cc1cnc2nc(N)nc(N)c2n1)C(=O)OC`, the T/C runs as follows: (dose: 25.0 mg/kg/injection, schedule: Q01DX009 (ip), vehicle: distilled water + Tween-80) 104 % of control; (dose: 50.0 mg/kg/injection, schedule: Q01DX009 (ip), vehicle: distilled water + Tween-80) 104 % of control; (dose: 100.0 mg/kg/injection, schedule: Q01DX009 (ip), vehicle: distilled water + Tween-80) 122 % of control.
Consider `Nc1nc(N)c2c(n1)CCC(C(=O)Nc1ccc(Cl)cc1)C2` (stereo unspecified), for which the T/C is 94 % of control under setting [1], 96 % of control under setting [2] and 96 % of control under setting [3].
`OCCNCCN=C1CCC(=NCCNCCO)CC1`: the T/C is 107 % of control under setting [4] and 105 % of control under setting [5].
Regarding `C[C@]12CCC(=O)C=C1CC[C@@H]1[C@@H]2[C@@H](O)C[C@@]2(C)[C@H]1CC[C@]2(O)C(=O)CF`, the T/C runs as follows: under setting [7], 100 % of control; under setting [8], 109 % of control; (dose: 200.0 mg/kg/injection, schedule: Q01DX009 (ip), vehicle: saline with Tween-80) 100 % of control; under setting [9], 109 % of control; (dose: 400.0 mg/kg/injection, schedule: Q01DX009 (ip), vehicle: saline with Tween-80) 100 % of control; (dose: 400.0 mg/kg/injection, schedule: Q04DX003 (ip), vehicle: saline with Tween-80) 109 % of control.
Consider `C=Cc1cc[n+](CC(=O)c2ccc(-c3ccccc3)cc2)cc1`, for which the T/C was 103 % of control (dose: 12.5 mg/kg/injection, schedule: Q01DX009 (ip), vehicle: Klucel (hydroxypropylcellulose) (HPC)); 90 % of control (dose: 25.0 mg/kg/injection, schedule: Q01DX009 (ip), vehicle: Klucel (hydroxypropylcellulose) (HPC)); 92 % of control (dose: 50.0 mg/kg/injection, schedule: Q01DX009 (ip), vehicle: Klucel (hydroxypropylcellulose) (HPC)).
For the molecule `CS(=O)(=O)OCc1cc(=O)c(OS(C)(=O)=O)co1`, the T/C by setting is: under setting [1], 108 % of control; under setting [2], 110 % of control; under setting [3], 112 % of control.
Turning to `NCCc1ccc(O)c(O)c1`, the T/C (dose: 1.5 mg/kg/injection, schedule: Q01DX009 (ip), vehicle: saline) was 100 % of control and 96 % of control; the T/C (dose: 15.0 mg/kg/injection, schedule: Q01DX009 (ip), vehicle: saline) was 99 % of control and 100 % of control; the T/C (dose: 25.0 mg/kg/injection, schedule: Q01DX009 (ip), vehicle: saline) is 108 % of control; the T/C (dose: 50.0 mg/kg/injection, schedule: Q01DX009 (ip), vehicle: other) is 101 % of control; the T/C (dose: 50.0 mg/kg/injection, schedule: Q01DX009 (ip), vehicle: saline) was 107 % of control and 108 % of control; the T/C (dose: 100.0 mg/kg/injection, schedule: Q01DX009 (ip), vehicle: other) was 83 % of control. In addition, the T/C is, setting by setting: (dose: 100.0 mg/kg/injection, schedule: Q01DX009 (ip), vehicle: saline) 101 % of control and 108 % of control; (dose: 150.0 mg/kg/injection, schedule: Q01DX009 (ip), vehicle: saline) 123 % of control; (dose: 200.0 mg/kg/injection, schedule: Q01DX009 (ip), vehicle: other) 90 % of control; (dose: 200.0 mg/kg/injection, schedule: Q01DX009 (ip), vehicle: saline) 112 % of control and 115 % of control; (dose: 300.0 mg/kg/injection, schedule: Q01DX009 (ip), vehicle: saline) 92 % of control; (dose: 400.0 mg/kg/injection, schedule: Q01DX009 (ip), vehicle: other) 83 % of control. Also, the T/C (dose: 400.0 mg/kg/injection, schedule: Q01DX009 (ip), vehicle: saline) is 99 % of control and 121 % of control; the T/C (dose: 600.0 mg/kg/injection, schedule: Q01DX009 (ip), vehicle: saline) is 153 % of control.
